Data: US7786174B2, “Methods and compounds for inhibiting amyloid deposits” (Bellus Health (International) Limited, priority 1999, dated 2010)

What was measured:
[1] = target: T1, IAPP (Homo sapiens, UniProt P10997); test: Circular dichroism analysis of IAPP-associated fibril formation (β-sheet conformation), co-incubation procedure; type: biochemical; details: change in ellipticity at 218 nm vs peptide-only control; molar ratio 1:10 peptide:compound; water or 10 mM phosphate buffer pH 7; relative value active / not active
T1 construct: add 10 μL of 10 mg/mL IAPP stock solution (final 100 μg peptide)
T1 sequence (P10997 34-70 limits assumed): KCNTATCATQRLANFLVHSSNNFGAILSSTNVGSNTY
Method: Cell/cuvette: Hellma quartz (QS) with 1.0 mm pathlength
Wavelength interval: 250 nm-190 nm
Scanning speed: 20 nm/min
The assay, a co-incubation procedure, examines the ability of a compound or substance to inhibit the assembly of amyloid fibrils, e.g., to test for the presence of the amyloidotic β-sheet conformation in the presence of soluble IAPP. Samples are run in the presence and absence (i.e., water alone) of buffering agent, which is done to determine if competitive effects are seen with the ionic buffer (usually phosphate).
Add components used at a molar ratio of 1:10 [peptide:compound]; add 10 μL of 10 mg/mL IAPP stock solution (final 100 μg peptide) to the aqueous solution containing compound to a final volume of 400 μl. The pH of the final assay solution is measured to ensure there is no fluctuation and the spectrum is accumulated using the parameters as shown above.
Add desired amount of compound to achieve a 1:10 molar ratio in 10 mM phosphate buffer, pH 7. Add 10 μL of 10 mg/mL IAPP stock solution (final peptide 100 μg) to the phosphate buffered solution containing the compound and bring to a final volume of 400 μL. The pH of the final assay solution is measured to ensure there is no fluctuation and the spectrum is accumulated using the parameters as shown above.
In both assays, a control sample is run with each test group.
Make fresh 1 mg/mL stock solution of IAPP in 10 mM phosphate buffer, pH 7. Add desired amount of compound to achieve a 1:10 molar ratio in 10 mM phosphate buffer, pH 7. Incubate for 3 days at room temperature. Make up to final volume of 400 μL with 10 mM phosphate buffer, pH 7. The pH of the final assay solution is measured to ensure there is no fluctuation and the spectrum is accumulated using the parameters as shown above.
Plots of the spectra (control and treated) are individually assembled and the changes in ellipticity at 218 nm are examined. This minimum is directly correlated with the amount of β-sheet present in the sample.

[2] = target: T2, Synthetic human IAPP (Homo sapiens, UniProt P10997); test: Rate of amyloid fibril formation by Thioflavine T (ThT) spectroscopy; type: biochemical; details: ThT 62.5 μM; excitation 440 nm, emission 482 nm; readings from 5 min, over 4-6 h and after overnight at room temperature
T2 construct: Synthetic human IAPP (Bachem) was dissolved in 40% trifluoroethanol and freeze-dried; purchased Bachem; host or cells: chemical synthesis
T2 sequence (P10997 34-70 limits assumed): T1 sequence (P10997 34-70 limits assumed)
Method: Determination of the Rate of Amyloid Fibril Formation by Thioflavine T Spectroscopy
Detection of ThT fluorescence can be used as a sensitive assay for amyloid fibril formation under different conditions.
Synthetic human IAPP (Bachem) was dissolved in 40% trifluoroethanol and freeze-dried into conveniently-sized aliquots. IAPP was prepared immediately before the measurements by dissolving in 40% 1,1,1,3,3,3-hexafluoro-2-propanol (HFIP) in water to maintain the peptide in alpha helical conformation and soluble. A stock solution of ThT (2.5 mM) was prepared, 7.9 mg in 10 mL Tris-HCl pH 7.0 and filtered (0.22 μm). Solutions were kept in the dark until use. Fluorescence was examined at 440 nm excitation (slit 5 nm), and emission at 482 nm (slit 10 nm) with stirring. […] The sample was stirred for 5 min. before taking a reading. Measurements were made at an initial time point (5 min. from sample preparation), at intervals over the next 4-6 h and after overnight incubation at room temperature.

Structure (SMILES) | Activity [1] | effect on IAPP-associated fibril assembly (ThT fluorescence) [2]
Cl.c1ccc2c(c1)CCNC2 [1,2,3,4-tetrahydroisoquinoline, HCl] | Active | inhibit or prevent IAPP-associated fibril assembly
O=S(=O)(O)CCCNCCCO [3-(3-hydroxy-1-propyl)amino-1-propanesulfonic acid] | Active | inhibit or prevent IAPP-associated fibril assembly
NCC(O)CS(=O)(=O)O (stereo not drawn) [3-amino-2-hydroxy-1-propanesulfonic acid] | Active | inhibit or prevent IAPP-associated fibril assembly
CN(C)CCCS(=O)(=O)O [3-dimethylamino-1-propanesulfonic acid] | Active | inhibit or prevent IAPP-associated fibril assembly
O=S(=O)([O-])CCCN1CC=C(c2ccccc2)CC1.[Na+] [4-phenyl-1-(3′-sulfopropyl)-1,2,3,6-tetrahydropyridine, sodium salt] | Active | inhibit or prevent IAPP-associated fibril assembly
COc1ccc(S(=O)(=O)[O-])c2cccnc12.[Na+] [8-methoxyquinoline-5-sulfonic acid, sodium salt] | Active | inhibit or prevent IAPP-associated fibril assembly
N[C@@H](COP(=O)(O)O)C(=O)O [O-phospho-L-serine] | Active | inhibit or prevent IAPP-associated fibril assembly
O=S(=O)([O-])NC1CCCCC1.[Na+] [cyclohexylsulfamic acid, sodium salt] | Active | inhibit or prevent IAPP-associated fibril assembly
O=C(O)C(F)(F)C(F)(F)C(F)(F)C(=O)O [hexafluoroglutaric acid] | Active | inhibit or prevent IAPP-associated fibril assembly
